Results: paper PMC6858373 (Scientific Reports, 2019)
Counter-ions that a name gives are not always drawn. Like-named read-outs stand apart in the source and are kept apart here.

Experiments:
[1] = in vitro; conditions: human
[2] = tested on: Clone V cells; conditions: human
[3] = target: T1, FGF14:Nav1.6 C-tail complex (Homo sapiens, UniProt Q92915+Q9UQD0); assay: Split-luciferase complementation assay (LCA) in Clone V double stable HEK293 cells; format: cell-based
T1 construct: polymerase chain reaction (PCR) amplification of the FGF14 open reading frame (nt 1–855); C-terminal fragment of Nav1.6 (amino acids 1763–1976) fused with CD4ΔC-tail (amino acids 1–395); expressed in transfected cells
T1 sequence (Q92915 1-252 isoform Q92915-2): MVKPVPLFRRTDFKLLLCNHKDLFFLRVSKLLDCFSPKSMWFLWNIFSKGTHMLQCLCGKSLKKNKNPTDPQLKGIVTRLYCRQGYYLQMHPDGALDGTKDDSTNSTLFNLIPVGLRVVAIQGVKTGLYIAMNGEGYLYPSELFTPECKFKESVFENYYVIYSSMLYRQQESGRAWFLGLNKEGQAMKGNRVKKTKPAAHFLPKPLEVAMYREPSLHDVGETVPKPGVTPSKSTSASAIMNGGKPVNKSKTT
T1 sequence (Q9UQD0 1763-1976 limits assumed): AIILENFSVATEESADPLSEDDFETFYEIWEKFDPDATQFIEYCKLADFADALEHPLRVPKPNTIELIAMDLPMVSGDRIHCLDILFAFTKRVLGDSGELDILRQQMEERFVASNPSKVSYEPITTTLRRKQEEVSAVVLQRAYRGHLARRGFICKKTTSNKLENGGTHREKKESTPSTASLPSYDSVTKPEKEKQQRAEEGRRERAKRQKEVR

[4] = target: full-length P. pyralis luciferase (Photinus pyralis, UniProt P08659, K549A/L550V/N119G/N50D/S548I); format: cell-based
Chain of full-length P. pyralis luciferase (P08659 whole entry N50D/N119G/S548I/K549A/L550V, looked up): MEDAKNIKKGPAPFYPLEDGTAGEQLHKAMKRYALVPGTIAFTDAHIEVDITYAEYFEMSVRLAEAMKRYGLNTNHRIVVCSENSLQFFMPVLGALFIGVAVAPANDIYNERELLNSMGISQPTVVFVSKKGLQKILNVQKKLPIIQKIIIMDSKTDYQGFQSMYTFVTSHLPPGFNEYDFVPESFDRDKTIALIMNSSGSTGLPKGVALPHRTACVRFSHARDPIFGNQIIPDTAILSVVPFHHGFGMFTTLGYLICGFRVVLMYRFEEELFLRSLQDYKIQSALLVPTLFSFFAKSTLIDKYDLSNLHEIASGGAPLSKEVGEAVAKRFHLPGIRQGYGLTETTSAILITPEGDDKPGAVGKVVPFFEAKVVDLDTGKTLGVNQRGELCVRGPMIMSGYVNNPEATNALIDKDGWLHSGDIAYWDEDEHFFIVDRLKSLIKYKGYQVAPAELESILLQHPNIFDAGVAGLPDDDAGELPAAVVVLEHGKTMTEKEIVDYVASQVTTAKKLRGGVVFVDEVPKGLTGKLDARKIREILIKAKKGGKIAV

[5] = CC_NCI screening, biological replicate Set 1, normalized to on-plate 0.3% DMSO controls
[6] = CC_NCI screening, biological replicate Set 1, normalized to on-plate 0.3% DMSO controls (n=16 per plate)
[7] = CC_NCI screening, biological replicate Set 2, normalized to on-plate 0.3% DMSO controls
[8] = CC_NCI screening, biological replicate Set 2, normalized to on-plate 0.3% DMSO controls (n=16 per plate)
[9] = average of Set 1 and Set 2, normalized to 0.3% DMSO controls
[10] = CC_NCI screening, normalized to on-plate 0.3% DMSO controls

Row | SMILES | viability at 16 h, 30 µM [1] [%] | Toxicity Assay Z-score (CTB cell viability) ([2]; 16 h, 30 µM) | Split Luciferase Assay Z-score Set 1 [3, 5] | Split Luciferase Assay % Lum Set 1 [3, 6] [%] | Split Luciferase Assay Z-score Set 2 [3, 7] | Split Luciferase Assay %Lum Set 2 [3, 8] [%] | Split Luciferase Assay %Lum Avg [3, 9] [%] | Luciferase Assay % Lum (full-length luciferase counter-screen) [4, 10] [%] | Luciferase Assay Z-score (full-length luciferase counter-screen) [4, 10] | viability at 16 h, 30 µM ([1]; Clone V cells) [%] | further results
1 | CC/C(=C(\c1ccccc1)c1ccc(OCCN(C)C)cc1)c1ccccc1 [Tamoxifen citrate] | 43.4 | -7.92 | – | – | – | – | – | – | – | – | Split Luciferase Assay % Lum Set 1 [3]: 4.67%; Split Luciferase Assay %Lum Avg [3]: 2.86%; Split Luciferase Assay %Lum Set 2 [3]: 1.04%; Split Luciferase Assay Z-score Set 1 [3]: -7.70; Split Luciferase Assay Z-score Set 2 [3]: -8.05; Luciferase Assay % Lum (full-length luciferase counter-screen) [4]: 59.05%; Luciferase Assay Z-score (full-length luciferase counter-screen) [4]: -5.24
2 | NC(=O)c1ccc(N(C(N)=O)c2c(F)cccc2F)nc1-c1ccc(F)cc1F [VX-702] | 105 | 0.75 | 1.35 | 116.65 | -2.63 | 67.62 | 92.13 | 93.91 | -0.78 | – | –
3 | CC(=O)O[C@]1(C(C)=O)CC[C@H]2[C@@H]3C=C(C)C4=CC(=O)CC[C@]4(C)[C@H]3CC[C@@]21C [Megestrol acetate] | 106 | 0.79 | 4.24 | 152.52 | 2.87 | 135.24 | 143.88 | – | – | – | Luciferase Assay % Lum (full-length luciferase counter-screen) [4]: 99.64%; Luciferase Assay Z-score (full-length luciferase counter-screen) [4]: -0.05
4 | Cc1[nH]c2ccccc2c1CCNCc1ccc(/C=C/C(=O)NO)cc1 [LBH-589] | – | 0.78 | -1.99 | 75.34 | -0.18 | 97.79 | 86.56 | 101.54 | 0.20 | 106 | –
5 | Nc1ncn([C@H]2C[C@H](O)[C@@H](CO)O2)c(=O)n1 [Decitabine, reference compound] | – | 0.87 | 6.88 | 185.13 | 7.95 | 197.66 | 191.40 | 110.67 | 1.37 | 106 | EC50 [3]: 28.8 µM; Z-score (LCA primary screening) ([3]; 30 µM, 384-well, average of primary screening (n = 2), vs on-plate 0.3% DMSO): 7.41; EMax (% Luminescence) ([3]; agonists, Clone V cells, 384-well, normalized to DMSO): 191.40 % Luminescence
6 | Cc1c[nH]c(-c2cnc(NCCNc3ccc(C#N)cn3)nc2-c2ccc(Cl)cc2Cl)n1 [CHIR 99021] | 108 | 1.07 | -4.98 | 38.37 | -5.60 | 31.21 | 34.79 | 70.15 | -3.82 | – | –
7 | O=P1(NCCCl)OCCCN1CCCl (stereo not drawn) [Ifosfamide] | – | – | 1.26 | 115.56 | -0.01 | 99.87 | 107.71 | 96.59 | -0.44 | – | viability [1]: 106%; Toxicity Assay Z-score (CTB cell viability) [2]: 0.82
8 | CO[C@@]12[C@H](COC(N)=O)C3=C(C(=O)C(C)=C(N)C3=O)N1C[C@@H]1N[C@@H]12 [Mitomycin] | – | – | 0.73 | 109.04 | -0.01 | 99.87 | 104.45 | 110.98 | 1.41 | – | viability [1]: 118%; Toxicity Assay Z-score (CTB cell viability) [2]: 2.45
9 | COc1cc(O)c2c(c1)[C@H]1O[C@@H]1C[C@H](O)[C@H](O)C(=O)/C=C\C[C@H](C)OC2=O [HYPOTHEMYCIN] | – | – | -3.75 | 53.59 | -4.16 | 48.89 | 51.24 | 72.32 | -3.54 | – | viability [1]: 103%; Toxicity Assay Z-score (CTB cell viability) [2]: 0.42
10 | Nc1ccn([C@@H]2O[C@H](CO)[C@@H](O)C2(F)F)c(=O)n1 [Gemcitabine hydrochloride] | – | 2.40 | 0.29 | 103.60 | -0.43 | 94.67 | 99.13 | 102.42 | 0.31 | 117 | –
11 | CC(=O)[C@]1(O)Cc2c(O)c3c(c(O)c2[C@@H](O[C@H]2C[C@H](N)[C@H](O)[C@H](C)O2)C1)C(=O)c1ccccc1C3=O [Idarubicin hydrochloride] | – | 1.79 | 0.12 | 101.43 | -0.69 | 91.55 | 96.49 | 114.41 | 1.85 | 113 | –
12 | CC(C)C[C@H](NC(=O)[C@H](CCc1ccccc1)NC(=O)CN1CCOCC1)C(=O)N[C@@H](Cc1ccccc1)C(=O)N[C@@H](CC(C)C)C(=O)[C@@]1(C)CO1 [Carfilzomib] | – | – | -0.68 | 91.64 | -1.62 | 80.10 | 85.87 | 97.18 | -0.36 | – | viability [1]: 108%; Toxicity Assay Z-score (CTB cell viability) [2]: 1.05
13 | S=P(N1CC1)(N1CC1)N1CC1 [Thiotepa] | – | 1.01 | 0.38 | – | 2.11 | – | – | 95.81 | -0.54 | 107 | Split Luciferase Assay % Lum Set 1 [3]: 104.69%; Split Luciferase Assay %Lum Avg [3]: 115.28%; Split Luciferase Assay %Lum Set 2 [3]: 125.88%
14 | CC(=O)O[C@H]1C(=O)[C@@]2(C)[C@H]([C@H](OC(=O)c3ccccc3)[C@]3(O)C[C@H](OC(=O)[C@H](O)[C@@H](NC(=O)c4ccccc4)c4ccccc4)C(C)=C1C3(C)C)[C@]1(OC(C)=O)CO[C@@H]1C[C@@H]2O [Paclitaxel] | 111 | 1.59 | -1.03 | 87.29 | -0.43 | 94.67 | 90.98 | 114.27 | 1.83 | – | –
